According to patent US20260174745A1, “COMPOSITIONS AND METHODS FOR TREATING NF1 AND OTHER CONDITIONS” (priority 2022, published 2026):

What was measured:
mammary tumors [1] = details: previously shown; cited from earlier work
Kras-driven lung tumors = assay: Established Kras-driven lung tumors in A/J mice (vinyl carbamate initiation); assay type: in vivo
Experimental: FIG. 2 is photographs of mouse lungs and mouse lung tissue section stains collected […] of Kras mutations with vinyl carbamate. A/J mice were fed control diet or RXR agonists (100 mg/kg diet or 25 mg/kg body weight) for 12 weeks. Lungs were harvested and photographed (A) and then sectioned and stained with hematoxylin and eosin (“H & E”) to evaluate tumor grade (B) as defined in collaboration with a human lung cancer pathologist. […] Compound 1 has the structure: FIG. 3 is a plot of tumor burden and photographs of mouse lung tissue section stains. Eight weeks after initiation of Kras mutations, A/J mice were fed control diet or compound 1 (25 mg/kg) for 12 weeks. Lungs were sectioned and stained with H & E or by immunohistochemistry (“IHC”) to evaluate tumor burden or biomarkers, respectively. […] FIG. 4 is plots showing data collected from lung tumors induced in A/J mice as described in FIG. 3. After 12 weeks of treatment with compound 1 (25 mg/kg) or control diet, lungs were harvested. Immune cell populations in the lungs were analyzed by flow cytometry using an optimized multi-colored panel of antibodies.

mammary tumors [2] = assay: MMTV-neu mice with established mammary tumors; assay type: in vivo; details: for T cell / immune cell populations in mammary tumors: flow cytometry and IHC
Experimental: FIG. 5 is plots and stains obtained from MMTV-neu mice with established mammary tumors, which were treated with compound 1 for 10 days. Tumor size (A) was evaluated by calipers, immune cell populations by flow cytometry (B) and IHC (C). n=8 mice/group in A-C and n=4/group for quantification (D) of PCNA and p-ERK optical density. The data in FIG. 5 compound 1 reduces tumor burden and p-ERK and alters T cell populations in mammary tumors.

[3] = test system: NF1-ipNF 95.6 neurofibroma cells; assay: p-ERK expression by western blotting in neurofibroma cells; assay type: cell-based, human; details: 3 hours; for reduction of p-ERK expression: 50 nM selumetinib, 200 nM compound 1 or combination
Experimental: (§1) FIGS. 6A and 6B are a […] and a plot, respectively, generated from experiments on NF1-ipNF 95.6 neurofibroma cells treated with 50 nM selumetinib (Sel), 5 nM trametinib (Tra, an alternative MEK inhibitor used as a control), 200 nM compound 1, or the combination for 3 hours. Protein expression was evaluated by western blotting and LiCOR imaging (A). In B, cells were treated with 200 nM MSU42011, 100 nM Sel or the combination for 72 hrs, and cell viability measured using an MTT assay. *, P<0.05 vs. other groups.

[4] = test system: NF1-ipNF 95.6 neurofibroma cells; assay: MTT cell viability in neurofibroma cells; assay type: cell-based, human; details: 200 nM MSU42011, 100 nM selumetinib or combination, 72 hrs
Experimental: as §1

THP1 macrophages = assay: CCL2 mRNA (qPCR) in THP1 macrophages stimulated with conditioned medium from ipNF95.6 cells; assay type: cell-based, human; details: 50 nM selumetinib, 200 nM compound 1 or combination, 24 hrs, PMA + CM
Experimental: FIG. 8 is a plot showing results of experiments involving THP1 human monocytes that were differentiated into macrophages with 50 ng/ml PMA for 3 days, followed by treatment with conditioned medium (CM) from ipNF95.6 neurofibroma cells and drugs (50 nM selumetinib (Sel), 200 nM compound 1, or the combination) for an additional 24 hrs. CCL2 expression was evaluated by qPCR and normalized to the DMSO control without treatment with PMA+CM (not shown). Data represent means±standard deviations of two independent experiments, p<0.05 vs. DMSO control.
FIG. 10A is a plot showing the results where THP1 monocytes were differentiated into macrophages with 50 ng/ml PMA for 3 days, followed by treatment with CM from human PNF cells (ipNF95.6) and drugs (50 nM selumetinib, 200 nM compound 1, or the combination) for an additional 24 hrs.
Combination treatment with compound 1 and selumetinib decreased CCL2 mRNA expression in THP1 cells and BMDM stimulated with conditioned media (CM) from human and mouse PNF cells. […] CCL2 mRNA expression was evaluated by qPCR and normalized to the DMSO control without CM treatment (not shown). Data represent means±standard deviations. * p<0.05, ** p<0.01 compared with vehicle treatment.

RXR = RXR activation; details: read-out: EC50 in activating RXR
[5] = Triglyceride elevation in vivo
LL2 cells = assay: LL2 subcutaneous tumor dose ranging study; assay type: in vivo, C57/BL6 mice; details: bexarotene 30 mg/kg
[6] = Triglyceride levels in LL2 dose ranging study; details: bexarotene 30 mg/kg; plasma
Experimental: In this study, 7-8 week old male C57/BL6 mice were injected with 1×10^6 LL2 cells subcutaneously into the left flank. Tumors were measured with calipers twice per week (Monday and Thursday) and mice were weighed once per week (Monday). […] When tumors reached endpoint (20×20 mm or ulceration), mice were euthanized and tumors fixed in formalin. Blood was collected for plasma. Stats: two-way ANOVA w/Tukey HSD.

[7] = flow cytometry of lungs, p<0.05

Structure (SMILES): Cc1cc2c(cc1C1(c3ccc(C(=O)O)cn3)CC1)C(C)(C)CCC2(C)C [LG100268]
- CD206+ tumor-promoting macrophages, MDSCs and Foxp3+ Tregs in tumors (mammary tumors [1]): decreased
- number of activated cytotoxic CD8 T cells in tumors (mammary tumors [1]): increased

Structure (SMILES): CC(C)N(c1cc(C(C)(C)C)cc(C(C)(C)C)c1)c1ccc(C(=O)O)cn1 [compound 1, 6-[(3,5-di-tert-butylphenyl) (propan-2-yl)amino]pyridine-3-carboxylic acid]
- lung tumor burden (Kras-driven lung tumors; 25 mg/kg in diet, 12 weeks): significantly (p=0.0015) reduced
- tumor-promoting CD206+ macrophages within lung tumors (Kras-driven lung tumors; IHC): reduced
- p-ERK levels within lung tumors (Kras-driven lung tumors; IHC, p=0.03): reduced
- activated cytotoxic T cells (ratio of CD8+/CD4+, CD25+) (Kras-driven lung tumors; [7]): increased
- immunosuppressive CD4+CD25+ Tregs (Kras-driven lung tumors; [7]): decreased
- tumors that were high grade (Kras-driven lung tumors; histopathology, control group 77%, p<0.05): 62%
- average tumor burden lower compared to the control and bexarotene groups (Kras-driven lung tumors; lungs of A/J mice, 100 mg/kg diet (25 mg/kg body weight), 12 weeks, p=0.015): 60%
- number, size and histopathology of lung tumors (Kras-driven lung tumors; vs untreated controls and bexarotene-treated mice): significantly (p<0.05) decreased
- T cell / immune cell populations in mammary tumors (mammary tumors [2]): alters
- T cell / immune cell populations in mammary tumors (mammary tumors [2]; listed as Compound 1): alters the same immune cells in this model as LG100268
- p-ERK in mammary tumors (mammary tumors [2]; treated 10 days, IHC optical density): reduces
- tumor burden in mammary tumors (mammary tumors [2]; treated 10 days, calipers): reduces
- reduction of p-ERK expression [3]: approximately 70%
- expression of p-ERK ([3]; 200 nM compound 1, 50 nM selumetinib): decreases
- cell viability [4]: reduces viability
- decrease of CCL2 mRNA expression (THP1 macrophages): 23%
- EC50 (RXR): 30 nM
- elevation of triglycerides in vivo [5]: does not elevate triglycerides

Structure (SMILES): Cn1cnc2c(F)c(Nc3ccc(Br)cc3Cl)c(C(=O)NOCCO)cc21 [selumetinib, reference compound]
- reduction of p-ERK expression [3]: ~40%

Structure (SMILES): C=C(c1ccc(C(=O)O)cc1)c1cc2c(cc1C)C(C)(C)CCC2(C)C [bexarotene]
- activity against the tumors (LL2 cells): not active against the tumors
- CD206+ tumor-promoting macrophages, MDSCs and Foxp3+ Tregs in tumors (mammary tumors [1]): not observed
- number of activated cytotoxic CD8 T cells in tumors (mammary tumors [1]): not observed
- triglyceride levels [6]: raises triglycerides
